Measurements reported in patent publication US12384786B2 (MINGHUI PHARMACEUTICAL (SHANGHAI) LIMITED, priority 2019, dated 2025).
Where two headings read alike, the source gives them in different places. One block for each compound: values may come before it.

Key:
[1] = target: Full-length human BTK (C481S) (Homo sapiens (Human), UniProt Q06187, C481S); assay: BTK (C481S) inhibitory activity, Reaction Biology Corporation kinase assay; details: for inhibition at 0.005 µM: read-out: BTK(C481S) inhibitory rate(%)
Full-length human BTK = Full-length human BTK (Homo sapiens (Human), UniProt Q06187); assay: BTK inhibitory activity, Reaction Biology Corporation kinase assay; details: for inhibition at 0.005 µM: read-out: BTK inhibitory rate(%)
[2] = system: TMD8 cells (Human diffuse large B lymphoma cells); assay: CellTiter-Glo TMD8 inhibitory activity; type: cell-based; details: cultured in vitro
Excerpt: CellTiter-Glo kit was used to test the TMD8 inhibitory activity of compounds of examples on Human diffuse large B lymphoma cells cultured in vitro. IC50 values were shown below.

[3] = IC50(nM) BTK(C481S), (d) ATP concentration 50 μM
[4] = IC50(nM) BTK, (d) ATP concentration 50 μM
[5] = read-out: IC50(nM) BTK, (a) ATP concentration 30 μM
[6] = read-out: IC50(nM) BTK(C481S), (d) ATP concentration 50 μM
[7] = read-out: IC50(nM) BTK, (d) ATP concentration 50 μM

Sequence of Full-length human BTK (Q06187 whole entry): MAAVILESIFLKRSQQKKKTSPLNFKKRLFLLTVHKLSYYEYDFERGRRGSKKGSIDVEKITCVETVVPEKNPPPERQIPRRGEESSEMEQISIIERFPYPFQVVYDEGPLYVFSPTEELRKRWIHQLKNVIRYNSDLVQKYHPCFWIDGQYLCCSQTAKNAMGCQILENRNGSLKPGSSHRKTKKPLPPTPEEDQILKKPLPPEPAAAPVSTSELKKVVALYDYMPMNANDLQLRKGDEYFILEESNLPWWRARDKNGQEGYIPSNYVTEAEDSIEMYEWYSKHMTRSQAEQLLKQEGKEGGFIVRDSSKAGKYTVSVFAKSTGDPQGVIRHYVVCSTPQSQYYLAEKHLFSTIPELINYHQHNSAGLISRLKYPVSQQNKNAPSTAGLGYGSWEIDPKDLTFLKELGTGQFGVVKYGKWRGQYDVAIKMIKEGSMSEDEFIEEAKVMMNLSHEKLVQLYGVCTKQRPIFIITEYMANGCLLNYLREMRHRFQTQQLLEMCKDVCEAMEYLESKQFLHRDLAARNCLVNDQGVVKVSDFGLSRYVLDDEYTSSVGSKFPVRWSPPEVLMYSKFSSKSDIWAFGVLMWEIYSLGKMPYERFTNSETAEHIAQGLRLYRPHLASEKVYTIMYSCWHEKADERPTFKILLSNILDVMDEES
Sequence of Full-length human BTK (C481S) (Q06187 whole entry C481S): as the sequence (Q06187 whole entry) above, with C481S counted along it

inhibition at 0.005 µM (Full-length human BTK): 50%
Compound: Nc1ncnc2c1c(-c1ccc(Oc3ccccc3)cc1)nn2[C@@H]1CCC[C@H](O)C1 [Example 2, (1S, 3R)-3-(4-amino-3-(4-phenoxyphenyl)-1H-pyrazolo[3,4-d]pyrimidin-1-yl) cyclohex-1-ol]

IC50 [2]: 208 nM
Compound: C[C@]1(O)CCC[C@@H](n2nc(-c3ccc(Oc4ccccc4)cc3)c3c(N)ncnc32)C1 [Example 3A, (1s, 3R)-3-(4-amino-3-(4-phenoxyphenyl)-1H-pyrazolo[3,4-d]pyrimidin-1-yl)-1-methylcyclohexane-1-ol]

IC50 [2]: 200 nM
Compound: C[C@@]1(O)CCC[C@@H](n2nc(-c3ccc(Oc4ccccc4)cc3)c3c(N)ncnc32)C1 [Example 3B, (1R, 3R)-3-(4-amino-3-(4-phenoxyphenyl)-1H-pyrazolo[3,4-d]pyrimidin-1-yl)-1-methylcyclohexane-1-ol]

inhibition at 0.005 µM [1]: 53% | IC50 [2]: 29 nM | inhibition at 0.005 µM (Full-length human BTK): 62%
Compound: Nc1ncnc2c1c(-c1ccc(Oc3ccccc3)cc1)nn2C1CCC(O)C1 (centres unmarked) [Example 5]

inhibition at 0.005 µM [1]: 63% | IC50 [2]: 17 nM | inhibition at 0.005 µM (Full-length human BTK): 70%
Compound: CC1(O)CCC(n2nc(-c3ccc(Oc4ccccc4)cc3)c3c(N)ncnc32)C1 (centres unmarked) [Example 6, 3-(4-amino-3-(4-phenoxyphenyl)-1H-pyrazolo[3,4-d]pyrimidin-1-yl)-1-methylcyclopentanol]

IC50 [2]: 504 nM
Compound: Nc1ncnc2c1c(-c1ccc(Oc3ccccc3)cc1)nn2C1CCC(O)(C(F)(F)F)C1 (centres unmarked) [Example 7, 3-(4-amino-3-(4-phenoxyphenyl)-1H-pyrazolo[3,4-d]pyrimidin-1-yl)-1-(trifluoromethyl) Cyclopentanol]

inhibition at 0.005 µM [1]: 66% | IC50 [2]: 90 nM | inhibition at 0.005 µM (Full-length human BTK): 82%
Compound: Nc1ncnc2c1c(-c1ccc(Oc3ccccc3)cc1)nn2[C@H]1CC[C@@H](O)CC1 [Example 8A, (1s, 4S)-4-(4-amino-3-(4-phenoxyphenyl)-1H-pyrazolo[3,4-d]pyrimidin-1-yl) cyclohexane-1-ol]

inhibition at 0.005 µM [1]: 77% | IC50 [2]: 72 nM | inhibition at 0.005 µM (Full-length human BTK): 57%
Compound: C[C@]1(O)CC[C@@H](n2nc(-c3ccc(Oc4ccccc4)cc3)c3c(N)ncnc32)CC1 [Example 9A, (1s,4s)-4-(4-amino-3-(4-phenoxyphenyl)-1H-pyrazolo[3,4-d]pyrimidin-1-yl]-1-methylcyclohexane-1-ol]

inhibition at 0.005 µM [1]: 63% | IC50 [2]: 37 nM | inhibition at 0.005 µM (Full-length human BTK): 46%
Compound: C[C@]1(O)CC[C@H](n2nc(-c3ccc(Oc4ccccc4)cc3)c3c(N)ncnc32)CC1 [Example 9B, (1r,4r)-4 (4-amino-3-(4-phenoxyphenyl)-1H-pyrazolo[3,4-d]pyrimidin-1-yl]-1-methylcyclohexane-1-ol]

inhibition at 0.005 µM [1]: 72% | IC50 [2]: 145 nM | inhibition at 0.005 µM (Full-length human BTK): 63%
Compound: Nc1ncnc2c1c(-c1ccc(Oc3ccccc3)cc1)nn2C1CCC(O)(C2CC2)CC1 (centres unmarked) [Example 10, 4-(4-amino-3-(4-phenoxyphenyl)-1H-pyrazolo[3,4-d]pyrimidin-1-yl]-1-cyclopropylcyclohexane-1-ol]

IC50 ([1]; read-out: IC50(nM) BTK(C481S), (c) ATP concentration 10 μM): 1.7 nM | inhibition at 0.005 µM (Full-length human BTK): 55% | IC50 (Full-length human BTK; read-out: IC50(nM) BTK, (c) ATP concentration 10 μM): 3.8 nM
Compound: Nc1ncnc2c1c(-c1ccc(Oc3cccc(F)c3)cc1)nn2[C@@H]1CCC[C@@H](O)C1 [Example 15]

IC50 [2]: 41 nM | IC50 (Full-length human BTK; [5]): 18.8 nM
Compound: Nc1ncnc2c1c(-c1ccc(Oc3ccccc3)cc1F)nn2[C@@H]1CCC[C@@H](O)C1 [Example 16, (1R, 3R)-3-(4-amino-3-(2-fluoro-4-phenoxyphenyl)-1H-pyrazolo[3,4-d]pyrimidin-1-yl)cyclohex-1-ol]

IC50 [2]: 33 nM | IC50 (Full-length human BTK; [5]): 24.1 nM
Compound: Nc1ncnc2c1c(-c1ccc(Oc3ccccc3F)cc1)nn2[C@@H]1CCC[C@@H](O)C1 [Example 17, (1R,3R)-3-(4-amino-3-(4-(2-fluorophenoxy)phenyl)-1H-pyrazolo[3,4-d]pyrimidin-1-yl)cyclohex-1-ol]

IC50 (Full-length human BTK; [5]): 16 nM
Compound: COc1cccc(Oc2ccc(-c3nn([C@H]4CC[C@H](O)CC4)c4ncnc(N)c34)cc2)c1F [Example 21, (1r, 4r)-4-(4-amino-3-(4-(2-fluoro-3-methoxyphenoxy)phenyl)-1H-pyrazolo[3,4-d]pyrimidin-1-yl)cyclohex-1-ol]

IC50 (Full-length human BTK; [5]): 26.9 nM
Compound: Nc1ncnc2c1c(-c1ccc(Oc3cccc(F)c3)cc1)nn2C1CCC(O)C1 (centres unmarked) [Example 25, 3-(4-amino-3-(4-(3-fluorophenoxy)phenyl)-1H-pyrazolo[3,4-d]pyrimidin-1-yl) cyclopentane-1-ol]

Further lines, the compound ahead of its results:

Compound: COc1cccc(Oc2ccc(-c3nn(C4CCC(CO)OC4)c4ncnc(N)c34)cc2)c1F (single isomer, unassigned) [Example 30 Peak1-1, (5-(4-amino-3-(4-(2-fluoro-3-methoxyphenoxy)phenyl)-1H-pyrazolo[3,4-d]pyrimidin-1-yl)tetrahydro-2 h-pyran-2-yl)methanol]
IC50 [1, 3]: 3.7 nM | IC50 (Full-length human BTK; [4]): 3.8 nM

Compound: COc1cccc(Oc2ccc(-c3nn(C4CCC(CO)OC4)c4ncnc(N)c34)cc2)c1F (single isomer, unassigned) [Example 30 Peak1-2, (5-(4-amino-3-(4-(2-fluoro-3-methoxyphenoxy)phenyl)-1H-pyrazolo[3,4-d]pyrimidin-1-yl)tetrahydro-2 h-pyran-2-yl)methanol]
IC50 [1, 3]: 6.7 nM | IC50 (Full-length human BTK; [4]): 8.5 nM

Compound: COc1cccc(Oc2ccc(-c3nn(C4CCC(CO)OC4)c4ncnc(N)c34)cc2)c1F (single isomer, unassigned) [Example 30 Peak2-1, (5-(4-amino-3-(4-(2-fluoro-3-methoxyphenoxy)phenyl)-1H-pyrazolo[3,4-d]pyrimidin-1-yl)tetrahydro-2 h-pyran-2-yl)methanol]
IC50 [1, 3]: 1.1 nM | IC50 (Full-length human BTK; [4]): 1.8 nM

Compound: COc1cccc(Oc2ccc(-c3nn(C4CCC(CO)OC4)c4ncnc(N)c34)cc2)c1F (single isomer, unassigned) [Example 30 Peak2-2, (5-(4-amino-3-(4-(2-fluoro-3-methoxyphenoxy)phenyl)-1H-pyrazolo[3,4-d]pyrimidin-1-yl)tetrahydro-2 h-pyran-2-yl)methanol]
IC50 [1, 3]: 2.8 nM | IC50 (Full-length human BTK; [4]): 5 nM

Compound: Nc1ncnc2c1c(-c1ccc(Oc3c(F)cccc3F)cc1)nn2[C@@H]1CCC[C@@H](O)C1 [Example 18, (1R, 3R)-3-(4-amino-3-(4-(2,6-difluorophenoxy)phenyl)-1H-pyrazolo[3,4-d]pyrimidin-1-yl)cyclohex-1-ol]
IC50 [2]: 183 nM | IC50 (Full-length human BTK; [5]): 49.1 nM

Compound: COc1cccc(Oc2ccc(-c3nn([C@@H]4CCC[C@@H](O)C4)c4ncnc(N)c34)cc2)c1F [Example 19, (1R, 3R)-3-(4-amino-3-(4-(2-fluoro-3-methoxyphenoxy)phenyl)-1H-pyrazolo[3,4-d]pyrimidin-1-yl)cyclohex-1-ol]
IC50 [2]: 0.5 nM | IC50 (Full-length human BTK; [5]): 24.9 nM

Compound: COc1cccc(Oc2ccc(-c3nn([C@H]4CC[C@@H](O)CC4)c4ncnc(N)c34)cc2)c1F [Example 20, (1s,4s)-4-(4-amino-3-(4-(2-fluoro-3-methoxyphenoxy)phenyl)-1H-pyrazolo[3,4-d]pyrimidin-1-yl)cyclohex-1-ol]
IC50 ([1]; read-out: IC50(nM) BTK(C481S), (b) ATP concentration 100 μM): 0.9 nM | IC50 [2]: 8.6 nM | IC50 (Full-length human BTK; read-out: IC50(nM) BTK, (b) ATP concentration 100 μM): 5 nM

Compound: COc1cccc(Oc2ccc(-c3nn(C4CCC(O)C4)c4ncnc(N)c34)cc2)c1F (centres unmarked) [Example 22, 3-(4-amino-3-(4-(2-fluoro-3-methoxyphenoxy)phenyl)-1H-pyrazolo[3,4-d]pyrimidin-1-yl)cyclopentane-1-ol]
IC50 [2]: 8 nM

Compound: COc1cccc(Oc2ccc(-c3nn(C4CCC(O)C(O)C4)c4ncnc(N)c34)cc2)c1F (centres unmarked) [Example 28, 4-(4-amino-3-(4-(2-fluoro-3-methoxyphenoxy)phenyl)-1H-pyrazolo[3,4-d]pyrimidin-1-yl)cyclohexane-1,2-diol]
IC50 [1, 6]: 0.6 nM | IC50 (Full-length human BTK; [7]): 1.7 nM

Compound: COc1cccc(Oc2ccc(-c3nn(C4CCCCC4)c4ncnc(N)c34)cc2)c1F [Example 29, 1-cyclohexyl-3-(4-(2-fluoro-3-methoxyphenoxy)phenyl)-1H-pyrazolo[3,4-d]pyrimidin-4-amine, reference compound]
IC50 (Full-length human BTK; [5]): 64.1 nM

Compound: COc1cccc(Oc2ccc(-c3nn([C@H]4CCC[C@H](O)C4)c4ncnc(N)c34)cc2)c1F [Example 32, (1S,3S)-3-(4-amino-3-(4-(2-fluoro-3-methoxyphenoxy)phenyl)-1H-pyrazolin[3,4-d]pyrimidin-1-yl)cyclohexanol]
IC50 [1, 6]: 0.9 nM | IC50 (Full-length human BTK; [7]): 2.6 nM

Compound: Nc1ncnc2c1c(-c1ccc(Oc3cccc(O)c3F)cc1)nn2[C@@H]1CCC[C@@H](O)C1 [Example 33, (1R,3R)-3-(4-(4-amino-1-(3-hydroxycyclohexyl)-1H-pyrazolo[3,4-d]pyrimidin-3-yl)phenoxy)-2-fluorophenol]
IC50 (Full-length human BTK; [5]): 19.2 nM
